Laboratory results taken from patent US12123010B2, “Plants having increased tolerance to herbicides” (BASF SE, priority 2017, dated 2024).

How the values were obtained:
[1] = test system: Transgenic T2 Arabidopsis plants harboring PPO inhibitor tolerance trait; assay: Lab based germination assay in 48-well plates (Table i); assay type: in vivo, Arabidopsis thaliana; conditions: construct AMATU_PPO2_TP_hemG (Escherichia coli); in comparison to wild type plants
[2] = test system: Transgenic T2 Arabidopsis plants and ARBTH WT MC24 non-transgenic; assay: Greenhouse post spray test, injury 14 DAT (Tables ii, iii); assay type: in vivo, Arabidopsis thaliana; conditions: Arabidopsis thaliana, 336 h, Table ii; for pest or weed control at 50 g/ha: 50 g ai/ha; for pest or weed control at 100 g/ha: 100 g ai/ha; for pest or weed control at 200 g/ha: 200 g ai/ha;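 as to all read-outs here: value is percent injury to the sprayed plants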
[3] = test system: Variant PPO Enzyme R128A, F420M (Amaranthus PPO2); assay type: biochemical; conditions: variant R128A, F420M vs wild type
[4] = molecular target: Wild Type PPO Enzyme (Amaranthus PPO2, SEQ ID NO: 1) (Amaranthus tuberculatus, UniProt Q0NZW9); assay: PPO enzyme assay (recombinant), wild type; assay type: biochemical
Chain of Wild Type PPO Enzyme (Amaranthus PPO2, SEQ ID NO: 1) (Q0NZW9 1-534): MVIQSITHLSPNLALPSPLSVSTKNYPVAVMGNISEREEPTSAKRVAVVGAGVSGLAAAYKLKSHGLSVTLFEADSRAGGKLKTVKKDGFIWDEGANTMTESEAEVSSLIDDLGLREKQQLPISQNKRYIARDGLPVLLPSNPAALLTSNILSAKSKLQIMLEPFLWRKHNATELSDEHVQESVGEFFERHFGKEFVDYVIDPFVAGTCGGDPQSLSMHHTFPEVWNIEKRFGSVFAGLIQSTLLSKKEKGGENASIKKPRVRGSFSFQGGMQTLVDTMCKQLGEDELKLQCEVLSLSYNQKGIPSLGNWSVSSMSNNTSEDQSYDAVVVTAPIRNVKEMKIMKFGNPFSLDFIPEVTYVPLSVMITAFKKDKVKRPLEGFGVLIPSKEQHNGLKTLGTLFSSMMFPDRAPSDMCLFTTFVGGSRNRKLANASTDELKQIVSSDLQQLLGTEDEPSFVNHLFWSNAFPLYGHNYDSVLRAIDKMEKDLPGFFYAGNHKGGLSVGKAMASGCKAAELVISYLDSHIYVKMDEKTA

Compound: Cn1c(C(F)(F)F)cc(=O)n(-c2nc(Oc3cccnc3OCC(=O)O)c(Cl)cc2F)c1=O [Uracilpyridine 3, 2-[[3-[[3-chloro-5-fluoro-6-[3-methyl-2,6-dioxo-4-(trifluoromethyl)pyrimidin-1-yl]-2-pyridyl]oxy]-2-pyridyl]oxy]acetic acid]
- Tolerance Factor [1]: 1600
- pest or weed control at 1 g/ha ([2]; AMATU_PPO2_WT event Q, 1 g ai/ha): 48%
- pest or weed control at 5 g/ha ([2]; AMATU_PPO2_WT event Q, 5 g ai/ha): 80%
- pest or weed control at 10 g/ha ([2]; AMATU_PPO2_WT event Q, 10 g ai/ha): 100%
- pest or weed control at 30 g/ha ([2]; AMATU_PPO2_WT event Q, 30 g ai/ha): 100%
- pest or weed control at 1 g/ha ([2]; ARBTH WT MC24 non-transgenic, 1 g ai/ha + 1% MSO): 88%
- pest or weed control at 5 g/ha ([2]; ARBTH WT MC24 non-transgenic, 5 g ai/ha + 1% MSO): 100%
- pest or weed control at 10 g/ha ([2]; ARBTH WT MC24 non-transgenic, 10 g ai/ha + 1% MSO): 100%
- pest or weed control at 30 g/ha ([2]; ARBTH WT MC24 non-transgenic, 30 g ai/ha + 1% MSO): 100%
- pest or weed control at 80 g/ha ([2]; ARBTH WT MC24 non-transgenic, 80 g ai/ha + 1% MSO): 100%
- pest or weed control at 5 g/ha ([2]; ARBTH_PPO1_S305L_Y426M event O, 5 g ai/ha): 0%
- pest or weed control at 10 g/ha ([2]; ARBTH_PPO1_S305L_Y426M event O, 10 g ai/ha): 0%
- pest or weed control at 30 g/ha ([2]; ARBTH_PPO1_S305L_Y426M event O, 30 g ai/ha): 49%
- pest or weed control at 80 g/ha ([2]; ARBTH_PPO1_S305L_Y426M event O, 80 g ai/ha): 13%
- pest or weed control at 1 g/ha ([2]; ARBTH_PPO1_WT event Q, 1 g ai/ha): 10%
- pest or weed control at 5 g/ha ([2]; ARBTH_PPO1_WT event Q, 5 g ai/ha): 83%
- pest or weed control at 10 g/ha ([2]; ARBTH_PPO1_WT event Q, 10 g ai/ha): 98%
- pest or weed control at 30 g/ha ([2]; ARBTH_PPO1_WT event Q, 30 g ai/ha): 100%

Compound: CCOC(=O)COc1ccccc1Oc1nc(-n2c(=O)cc(C(F)(F)F)n(C)c2=O)ccc1Br [Uracilpyridine 6, ethyl 2-[2-[[3-bromo-6-[3-methyl-2,6-dioxo-4-(trifluoromethyl)pyrimidin-1-yl]-2-pyridyl]oxy]phenoxy]acetate]
- pest or weed control at 50 g/ha ([2]; ALOMY_PPO2_R137L_F438V event F): 0%
- pest or weed control at 100 g/ha ([2]; ALOMY_PPO2_R137L_F438V event F): 0%
- pest or weed control at 200 g/ha ([2]; ALOMY_PPO2_R137L_F438V event F): 18%
- pest or weed control at 50 g/ha ([2]; ALOMY_PPO2_R137L_F438V event G): 0%
- pest or weed control at 100 g/ha ([2]; ALOMY_PPO2_R137L_F438V event G): 0%
- pest or weed control at 200 g/ha ([2]; ALOMY_PPO2_R137L_F438V event G): 0%
- pest or weed control at 50 g/ha ([2]; AMATU_PPO2_L397E_F420V event D): 0%
- pest or weed control at 100 g/ha ([2]; AMATU_PPO2_L397E_F420V event D): 0%
- pest or weed control at 200 g/ha ([2]; AMATU_PPO2_L397E_F420V event D): 8%
- pest or weed control at 50 g/ha ([2]; AMATU_PPO2_L397E_F420V event L): 0%
- pest or weed control at 100 g/ha ([2]; AMATU_PPO2_L397E_F420V event L): 0%
- pest or weed control at 200 g/ha ([2]; AMATU_PPO2_L397E_F420V event L): 15%
- pest or weed control at 50 g/ha ([2]; AMATU_PPO2_R128A_F420V event A): 0%
- pest or weed control at 100 g/ha ([2]; AMATU_PPO2_R128A_F420V event A): 43%
- pest or weed control at 200 g/ha ([2]; AMATU_PPO2_R128A_F420V event A): 30%
- pest or weed control at 50 g/ha ([2]; AMATU_PPO2_R128A_F420V event D): 0%
- pest or weed control at 100 g/ha ([2]; AMATU_PPO2_R128A_F420V event D): 38%
- pest or weed control at 200 g/ha ([2]; AMATU_PPO2_R128A_F420V event D): 28%

Compound: CCOC(=O)COc1ccc(F)cc1Oc1nc(-n2c(=O)cc(C(F)(F)F)n(C)c2=O)c(F)cc1Cl [Uracilpyridine 7, ethyl 2-[2-[[3-chloro-5-fluoro-6-[3-methyl-2,6-dioxo-4-(trifluoromethyl)pyrimidin-1-yl]-2-pyridyl]oxy]-4-fluoro-phenoxy]acetate]
- pest or weed control at 50 g/ha ([2]; ALOMY_PPO2_R137L_F438V event F): 0%
- pest or weed control at 100 g/ha ([2]; ALOMY_PPO2_R137L_F438V event F): 18%
- pest or weed control at 200 g/ha ([2]; ALOMY_PPO2_R137L_F438V event F): 13%
- pest or weed control at 50 g/ha ([2]; ALOMY_PPO2_R137L_F438V event G): 0%
- pest or weed control at 100 g/ha ([2]; ALOMY_PPO2_R137L_F438V event G): 0%
- pest or weed control at 200 g/ha ([2]; ALOMY_PPO2_R137L_F438V event G): 8%
- pest or weed control at 50 g/ha ([2]; AMATU_PPO2_L397E_F420V event D): 0%
- pest or weed control at 100 g/ha ([2]; AMATU_PPO2_L397E_F420V event D): 0%
- pest or weed control at 200 g/ha ([2]; AMATU_PPO2_L397E_F420V event D): 10%
- pest or weed control at 50 g/ha ([2]; AMATU_PPO2_L397E_F420V event L): 0%
- pest or weed control at 100 g/ha ([2]; AMATU_PPO2_L397E_F420V event L): 0%
- pest or weed control at 200 g/ha ([2]; AMATU_PPO2_L397E_F420V event L): 33%
- pest or weed control at 50 g/ha ([2]; AMATU_PPO2_R128A_F420V event A): 13%
- pest or weed control at 100 g/ha ([2]; AMATU_PPO2_R128A_F420V event A): 50%
- pest or weed control at 200 g/ha ([2]; AMATU_PPO2_R128A_F420V event A): 70%
- pest or weed control at 50 g/ha ([2]; AMATU_PPO2_R128A_F420V event D): 33%
- pest or weed control at 100 g/ha ([2]; AMATU_PPO2_R128A_F420V event D): 65%
- pest or weed control at 200 g/ha ([2]; AMATU_PPO2_R128A_F420V event D): 75%

Compound: CCOC(=O)COc1ccccc1Oc1nc(-n2c(=O)c(C)c(C(F)(F)F)n(C)c2=O)c(F)cc1Cl [Uracilpyridine 12, ethyl 2-[2-[[3-chloro-6-[3,5-dimethyl-2,6-dioxo-4-(trifluoromethyl)pyrimidin-1-yl]-5-fluoro-2-pyridyl]oxy]phenoxy]acetate]
- Tolerance Factor (R/S) [3]: 536
- IC50 [4]: 0.212 nM

Compound: C=CCOC(=O)COc1ncccc1Oc1nc(-n2c(=O)cc(C(F)(F)F)n(C)c2=O)c(F)cc1Cl [Uracilpyridine 13, allyl 2-[[3-[[3-chloro-5-fluoro-6-[3-methyl-2,6-dioxo-4-(trifluoromethyl)pyrimidin-1-yl]-2-pyridyl]oxy]-2-pyridyl]oxy]acetate]
- Tolerance Factor (R/S) [3]: 421
- IC50 [4]: 0.218 nM

Compound: C#CCOC(=O)COc1ncccc1Oc1nc(-n2c(=O)cc(C(F)(F)F)n(C)c2=O)c(F)cc1Cl [Uracilpyridine 14, prop-2-ynyl 2-[[3-[[3-chloro-5-fluoro-6-[3-methyl-2,6-dioxo-4-(trifluoromethyl)pyrimidin-1-yl]-2-pyridyl]oxy]-2-pyridyl]oxy]acetate]
- Tolerance Factor (R/S) [3]: 675
- IC50 [4]: 0.234 nM

Compound: Cn1c(C(F)(F)F)cc(=O)n(-c2nc(Oc3cccnc3OCC(=O)OCC3CC3)c(Cl)cc2F)c1=O [Uracilpyridine 15, cyclopropylmethyl 2-[[3-[[3-chloro-5-fluoro-6-[3-methyl-2,6-dioxo-4-(trifluoromethyl)pyrimidin-1-yl]-2-pyridyl]oxy]-2-pyridyl]oxy]acetate]
- Tolerance Factor (R/S) [3]: 195
- IC50 [4]: 0.22 nM

Compound: Cn1c(C(F)(F)F)cc(=O)n(-c2nc(Oc3cccnc3OCC(=O)OCC(F)F)c(Cl)cc2F)c1=O [Uracilpyridine 16, 2,2-difluoroethyl 2-[[3-[[3-chloro-5-fluoro-6-[3-methyl-2,6-dioxo-4-(trifluoromethyl)pyrimidin-1-yl]-2-pyridyl]oxy]-2-pyridyl]oxy]acetate]
- Tolerance Factor (R/S) [3]: 508
- IC50 [4]: 0.175 nM

Compound: CC(C)COC(=O)COc1ncccc1Oc1nc(-n2c(=O)cc(C(F)(F)F)n(C)c2=O)c(F)cc1Cl [Uracilpyridine 17, isobutyl 2-[[3-[[3-chloro-5-fluoro-6-[3-methyl-2,6-dioxo-4-(trifluoromethyl)pyrimidin-1-yl]-2-pyridyl]oxy]-2-pyridyl]oxy]acetate]
- Tolerance Factor (R/S) [3]: 406
- IC50 [4]: 0.113 nM

Compound: CCOC(=O)COC(=O)COc1ncccc1Oc1nc(-n2c(=O)cc(C(F)(F)F)n(C)c2=O)c(F)cc1Cl [Uracilpyridine 18, (2-ethoxy-2-oxo-ethyl) 2-[[3-[[3-chloro-5-fluoro-6-[3-methyl-2,6-dioxo-4-(trifluoromethyl)pyrimidin-1-yl]-2-pyridyl]oxy]-2-pyridyl]oxy]acetate]
- Tolerance Factor (R/S) [3]: 753
- IC50 [4]: 0.154 nM

Compound: COCCOC(=O)COc1ncccc1Oc1nc(-n2c(=O)cc(C(F)(F)F)n(C)c2=O)c(F)cc1Cl [Uracilpyridine 19, 2-methoxyethyl 2-[[3-[[3-chloro-5-fluoro-6-[3-methyl-2,6-dioxo-4-(trifluoromethyl)pyrimidin-1-yl]-2-pyridyl]oxy]-2-pyridyl]oxy]acetate]
- Tolerance Factor (R/S) [3]: 503
- IC50 [4]: 0.248 nM
